Results reported in US20210100905A1, “APPLICATION OF COMPOUND OR TRADITIONAL CHINESE MEDICINE EXTRACT IN PREPARATION OF NUCLEIC ACID DELIVERY AGENT, AND RELATED PRODUCTS” (INSTITUTE OF BASIC MEDICAL SCIENCES CHINESE ACADEMY OF …, priority 2018, published 2021).

Key:
[1] = tested on: A549 cell (human lung adenocarcinoma cell); experiment: In vitro delivery of lipid nucleic acid mixture, RT-qPCR of intracellular small RNA; format: cell-based; conditions: for abundance of sRNA of different sequences in the cells (Taqman probe): FIG. 11A-C, sRNA 200 nM, 3 hours, compared with the control; for delivery of HJT-sRNA-m7 double-stranded RNA into A549 cells (real-time PCR): single lipid prepared by boiling or reverse evaporation method, RNA 100 nM, FIGS. 76, 91, 96, 99, 104, 106, 107; for delivery of HJT-sRNA-m7 single-stranded RNA into A549 cells (real-time PCR): single lipid, FIGS. 78, 92, 103; for delivery effect relative to that of RNAiMAX (real-time PCR): double-stranded HJT-sRNA-m7
Description: 3.1 NCI-N87 cell (gastric cancer cell), MRC-5 cell (lung fibroblast), A549 cell (lung cancer cell) were cultured to logarithmic growth phase, and then plated to a six-well plate at cell density of 1×10^6/2 mL medium/well; MRC-5 cell was cultured in Eagle's MEM medium (MEM, Gibco); A549 cell was cultured in Ham's F-12 medium (HyClone); NCI-N87 cell was cultured in RPMI-1640 medium (HyClone); followed by incubation overnight at 37° C., and the follow-up experiments were performed after the cells were attached to the walls.
3.3 After co-incubation with the small RNA for 3 hours, the cells were washed 2-3 times with PBS. The cells were harvested with TRIzol lysis buffer, and the total RNA was extracted. The abundance of small RNA that entered cells was detected by RT-qPCR, and the localization of RNA was detected by fluorescence in situ hybridization; protocols of each detection method were as follows:
1) The sRNA was reverse transcribed to cDNA: Reverse Transcription Kit (High-Capacity cDNA Reverse Transcription Kits, Applied Biosystems, cat. No. 4368813) was used to reverse transcribe sRNA into cDNA by stem-loop method, and the reverse transcription system was as follows: RNA template (150 ng/μl) 10 μl, 10×RT buffer, 2.0 μl, 25× dNTP Mix (100 mM) 0.8 μl, U6 RT stem-loop primer 2.0 μl, HJT-sRNA-RT-m7 stem-loop primer 2.0 μl, MultiScribe™ reverse transcriptase 1.0 μl, RNase inhibitor 1.0 μl, nuclease-free H2O 1.2 μl, loaded into a PCR reactor after brief centrifugation, the reaction conditions were as follows: (1) 25° C., 10 min; (2) 37° C., 120 min; (3) 85° C., 5 min; (4) 4° C., termination of the reaction. 20 μl RNase-free ddH2O was added to make up the final volume to 40 μl after the reaction. The stem-loop primer used in the reverse transcription process was synthesized by Beijing Tsingke Biotechnology Co., Ltd.
2) Quantitative PCR amplification reaction: the qPCR reaction system has a total volume of 10 μl, containing: 5 μL 2×SYBR Green Master Mix, 0.5 μl forward primer ([…]), 0.5 μl reverse primer (10 μM), 1 μl cDNA by reverse transcription, 3 RNase-free dH2O. LightCycler 480 fluorescence quantitative PCR instrument was used, and the PCR reaction conditions were: 95° C. for 5 min for pre-denaturation, followed by PCR amplification cycle: (1) 95° C., 10 s; (2) 55° C., 10 s; (3) 72° C. , 20 s; a total of 40 cycles; 40° C. for 10 s in the end to cool down. Both the forward and reverse primers of the amplification reaction were designed and synthesized by Beijing Tsingke Biotechnology Co., Ltd.
3) The relative expression level was calculated by 2-ΔCt method.
100 μl lipid in diethyl ether solution was prepared, and grouped according to the lipid numbers shown in Table 1 (the lipid concentrations are shown in the table below). To the lipid solution was added 20 μl nucleic acid solution (HJT sRNA or siRNA) at the volume ratio of 5:1, and sonicated for after 3 min. The diethyl ether was removed by evaporation at 55° C., and then 100 μl DEPC water was added for hydration to give nucleic acid lipid mixture.
100 μL of the nucleic acid solution (HJT sRNA or siRNA) was added to 2-5 μL of the lipid in chloroform (the concentration was shown in Table 1), mixed, and heated at 80-100° C. for 15-30 min to give nucleic acid lipid mixture.
3.1.1 MRC-5 cell (pulmonary embryonic fibroblast), A549 cell (human lung adenocarcinoma cell), Caco-2 cell (human colon adenocarcinoma cell) (purchased from the Cell Resource Center of the Institute of Basic Medical Sciences, Chinese Academy of Medical Sciences) were cultured to logarithmic growth phase, then plated into 12-well plates at a cell density of 6×10^5/1 mL medium/well; MRC-5 and Caco-2 cells were cultured in Eagle's MEM medium (MEM, Gibco); A549 cells were cultured in Ham's F-12 medium (HyClone); followed by incubation overnight at 37° C., and the follow-up experiments were performed after the cells were attached to the walls. […]

A549 cells = experiment: Flow cytometry detection of the efficiency of nucleic acid delivery by lipid; format: cell-based, human; conditions: boiling method, 6 hours co-incubation
Description: Experimental materials: A549 cells (purchased from the Cell Center of the Chinese Academy of Medical Sciences), FAM-sRNA (purchased from Ribobio Biotechnology Co., Ltd.), lipid No. 41, Accuri® C6 instrument (purchased from BD, USA).
Experimental methods: PGY-sRNA-6-FAM was dissolved in 100 μl water, mixed with 4 μl lipid, and prepared by boiling method. Then the mixture was dropped into A549 cells, and after 6 hours of co-incubation, the samples were collected for detection as follows: firstly wash three times with PBS, then digest with trypsin for 3 minutes and remove trypsin, wash with PBS again and then blow down the cells. The detection was performed using Accuri® C6 instrument.
Experimental Method: PGY-sRNA-6-FAM was dissolved in 100 μl water, and mixed with 4 μl lipid, and prepared into lipid-sRNA mixture by boiling method. Then, the mixture was dropped into A549 cells, and after 6 hours of co-incubation, the samples were collected and washed three times with PBS, then digested with trypsin into single cells, washed with re-suspended with PBS and then blown down for Accuri® C6 instrument detection.
Experimental Method: FAM-sRNA was dissolved in 100 μl water, and mixed with 4 μl lipid, prepared by boiling method. Then, the lipid-sRNA mixture was dropped into A549 cells, and after 6 hours of co-incubation, the samples were collected and washed three times with PBS, then digested into single cells with trypsin, re-suspended with PBS and then blown down for Accuri® C6 instrument detection.

SMILES	abundance of sRNA of different sequences in the cells (Taqman probe) ([1]; reverse evaporation method)	delivery of HJT-sRNA-m7 double-stranded RNA into A549 cells (real-time PCR) [1]	delivery of HJT-sRNA-m7 single-stranded RNA into A549 cells (real-time PCR) ([1]; boiling method)	efficiency in delivering PGY-sRNA-6 single-stranded RNA (flow cytometry) (A549 cells; 4 μl lipid)	efficiency of PGY-sRNA-6 single-stranded RNA delivery relative to positive control RNAiMAX (flow cytometry) (A549 cells)	delivery effect relative to that of RNAiMAX (real-time PCR) ([1]; reverse evaporation method)	delivery effect relative to that of RNAiMAX (real-time PCR) ([1]; boiling method)	efficiency in delivering PGY-sRNA-6 double-stranded RNA (flow cytometry) (A549 cells; 4 μl lipid)
CCCCC/C=C\C/C=C\CCCCCCCC(=O)O[C@H](COC(=O)CCCCCCCCCCCCCCCCC)COP(=O)([O-])OCC[N+](C)(C)C [No. 11, trimethyl(2-{[(2R)-2-[(9Z, 12Z)-octadeca-9,12-dienoyloxy]-3-(octadecanoyloxy)propyl-phosphonato]oxy}ethyl) azanium]	could effectively facilitate nucleic acid molecules of different sequences entry into various cells							
CCCCC/C=C\C/C=C\CCCCCCCC(=O)O[C@H](COC(=O)CCCCCCCCCCCCCCC)COP(=O)([O-])OCC[N+](C)(C)C [No. 12, (2-{[(2R)-3-(hexadecanoyloxy)-2-[(9Z,12Z)-octadeca-9,12-dienoyloxy]propylphosphonato]oxy}ethyl) trimethylazanium]	could effectively facilitate nucleic acid molecules of different sequences entry into various cells							
CCCCCC/C=C\CCCCCCCC(=O)O[C@H](COC(=O)CCCCCCCCCCCCCCC)COP(=O)(O)OCCN [No. 38, (2-aminoethoxy) [(2R)-2-[(9Z)-hexadec-9-enoyloxy]-3-(hexadecanoyloxy)propoxy] phosphinic acid]		delivered double-stranded RNA into A549 and MRC-5 cells	the efficiency of delivery was much higher than that of RNAiMAX	72.5%	close to that of the positive control RNAiMAX			
CCCCCCCC/C=C\CCCCCCCCCCCC(=O)O[C@H](COC(=O)CCCCCCCCCCCCCCC)COP(=O)(O)OCCN [No. 40, (2-aminoethoxy) [(2R)-2-[(13Z)-docos-13-enoyloxy]-3-(hexadecanoyloxy)propoxy] phosphinic acid]		delivered double-stranded RNA into A549 cells				½		
CCCCCCCCCCCCCCCCCCC[C@@H](O)[C@@H](N)CO [No. 41, Sphinganine (d22:0)]		delivered HJT-sRNA-m7 double-stranded RNA into A549 cells	delivered HJT-sRNA-m7 single-stranded RNA into A549 and MRC-5 cells	94.1%		significantly higher than that of RNAiMAX	about twice	96.7%
CCCCCCCC/C=C\CCCCCCCCCCCCCC(=O)O[C@H](COC(=O)CCCCCCCCCCCCCC)COP(=O)(O)OCCN [No. 64, 1-pentadecanoyl-2-nervonoyl-sn-glycero-3-phospho-ethanolamine]		delivered HJT-sRNA-m7 double-stranded RNA into A549 cells			½		about 3 times that of RNAiMAX	
